Data taken from US9169254B2, “Spiroimidazolone derivative” (Chugai Seiyaku Kabushiki Kaisha, priority 2009, dated 2015).

Biological target: T1, human PTH1 receptor (Homo sapiens, UniProt Q03431)
T1 sequence (Q03431 27-593): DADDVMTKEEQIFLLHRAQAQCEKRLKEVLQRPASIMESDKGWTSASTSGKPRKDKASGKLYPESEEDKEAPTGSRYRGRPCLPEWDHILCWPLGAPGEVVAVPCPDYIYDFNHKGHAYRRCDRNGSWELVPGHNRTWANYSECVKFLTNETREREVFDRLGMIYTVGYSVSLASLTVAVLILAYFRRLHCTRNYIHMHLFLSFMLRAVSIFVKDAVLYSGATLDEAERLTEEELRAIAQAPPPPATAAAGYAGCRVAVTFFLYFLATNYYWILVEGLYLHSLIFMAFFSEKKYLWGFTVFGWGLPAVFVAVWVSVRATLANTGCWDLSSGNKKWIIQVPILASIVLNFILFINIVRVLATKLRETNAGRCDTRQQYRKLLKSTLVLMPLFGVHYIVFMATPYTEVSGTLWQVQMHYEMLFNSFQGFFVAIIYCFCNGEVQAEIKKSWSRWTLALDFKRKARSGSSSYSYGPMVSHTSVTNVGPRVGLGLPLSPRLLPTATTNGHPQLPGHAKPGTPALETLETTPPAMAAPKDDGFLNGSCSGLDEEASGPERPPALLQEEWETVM
Assay: In vitro cAMP signal activity in HKRK-B7 cells (LLC-PK1 cells overexpressing the human PTH1 receptor)
Type: cell-based
Conditions: HKRK-B7 cells; compound at 1×10^−3 M; cAMP produced as percentage of that produced by hPTH(1-34) at 100 nM

Row | Compound | cAMP production activity (%)
1 | Cc1cc(C(=O)N2CCC(O)(CF)CC2)cc(C)c1/C=C/S(=O)(=O)N1CCC2(CC1)N=C(c1ccc(Cl)c(OCC(F)(F)C(F)(F)F)c1)NC2=O [Compound 1270, 2-[4-chloro-3-(2,2,3,3,3-pentafluoro-propoxy)-phenyl]-8-{(E)-2-[4-(4-fluoromethyl-4-hydroxy-piperidine-1-carbonyl)-2,6-dimethyl-phenyl]-ethenesulfonyl}-1,3,8-triaza-spiro[4.5]dec-1-en-4-one] | 61
2 | CCCOCCCCCC1=NC2(CCN([S@TB18](=O)(=O)/C=C/c3c(C)cc(N(C)C(N)=O)cc3C)CC2)C(=O)N1 [Compound 1124, 1-(3,5-dimethyl-4-{(E)-2-[4-oxo-2-(5-propoxy-pentyl)-1,3,8-triaza-spiro[4.5]dec-1-ene-8-sulfonyl]-vinyl}-phenyl)-1-methyl-urea] | 119
3 | Cc1cc2ccc1CCS(=O)(=O)N1CCC3(CC1)N=C(NC3=O)c1cc(cc(C(F)(F)F)c1)OCCc1cn(nn1)CCCN(C)C2=O [Compound 1442] | 9.3
4 | CCCCCC#CCCC1=NC2(CCN(S(=O)(=O)/C=C/c3c(C)cc(N(C)C(N)=O)cc3C)CC2)C(=O)N1 [Compound 1025, 1-{3,5-dimethyl-4-[(E)-2-(2-non-3-ynyl-4-oxo-1,3,8-triaza-spiro[4.5]dec-1-ene-8-sulfonyl)-vinyl]-phenyl}-1-methyl-urea] | 114
5 | CC(=O)Nc1ccc(CCS(=O)(=O)N2CCC3(CC2)N=C(C2CC(C)(C)CC(C)(C)C2)NC3=O)c(C)c1 [Compound 926, N-(3-methyl-4-{2-[4-oxo-2-(3,3,5,5-tetramethyl-cyclohexyl)-1,3,8-triaza-spiro[4.5]dec-1-ene-8-sulfonyl]-ethyl}-phenyl)-acetamide] | 102
6 | Cc1cc(N2C(=O)CN(C)C2=O)cc(C)c1/C=C/S(=O)(=O)N1CCC2(CC1)N=C(C1CCC(CCC(F)(F)F)CC1)NC2=O (stereo not shown) [Compound 548, 3-[3,5-dimethyl-4-((E)-2-{4-oxo-2-[4-(3,3,3-trifluoro-propyl)-cyclohexyl]-1,3,8-triaza-spiro[4.5]dec-1-ene-8-sulfonyl}-vinyl)-phenyl]-1-methyl-imidazolidine-2,4-dione] | 88
7 | Cc1cc(N(CCO)C(=O)NCCO)cc(C)c1/C=C/S(=O)(=O)N1CCC2(CC1)N=C(c1cccc(OC(F)(F)F)c1)NC2=O [Compound 532, 1-(3,5-dimethyl-4-{(E)-2-[4-oxo-2-(3-trifluoromethoxy-phenyl)-1,3,8-triaza-spiro[4.5]dec-1-ene-8-sulfonyl]-vinyl}-phenyl)-1,3-bis-(2-hydroxy-ethyl)-urea] | 80
8 | CC(=O)N(c1cc(C)c(/C=C/S(=O)(=O)N2CCC3(CC2)N=C(C2CCCCC2)NC3=O)c(C)c1)C1CCC(O)CC1 (stereo not shown) [Compound 709, N-{4-[(E)-2-(2-cyclohexyl-4-oxo-1,3,8-triaza-spiro[4.5]dec-1-ene-8-sulfonyl)-vinyl]-3,5-dimethyl-phenyl}-N-(4-hydroxy-cyclohexyl)-acetamide] | 58
9 | COc1cccc(C2=NC3(CCN(S(=O)(=O)c4cccc(Cl)c4)CC3)C(=O)N2)c1 [Compound 5, 8-(3-chloro-benzenesulfonyl)-2-(3-methoxy-phenyl)-1,3,8-triaza-spiro[4.5]dec-1-en-4-one] | 2.5
10 | CN(C)CCn1ccc2c(CCS(=O)(=O)N3CCC4(CC3)N=C(C3CCCCC3)NC4=O)cccc21 [Compound 313, 2-cyclohexyl-8-{2-[1-(2-dimethylamino-ethyl)-1H-indol-4-yl]-ethanesulfonyl}-1,3,8-triaza-spiro[4.5]dec-1-en-4-one] | 63
11 | CC(=O)Nc1ccc(CCS(=O)(=O)N2CCC3(CC2)N=C(C2CCC(=CCC(F)F)CC2)NC3=O)c(C)c1 (stereo not shown) [Compound 1076, N-[4-(2-{2-[4-(3,3-difluoro-propylidene)-cyclohexyl]-4-oxo-1,3,8-triaza-spiro[4.5]dec-1-ene-8-sulfonyl}-ethyl)-3-methyl-phenyl]-acetamide] | 88
12 | [2H]C([2H])([2H])C([2H])([2H])C([2H])([2H])C([2H])([2H])Oc1cc(C2=NC3(CCN(S(=O)(=O)/C=C/c4c(C)cc(C(=O)N5CCC(C)(O)CC5)cc4C)CC3)C(=O)N2)ccc1F [Compound 1211, 2-(3-[1,1,2,2,3,3,4,4,4-^2H9]butoxy-4-fluoro-phenyl)-8-{(E)-2-[4-(4-hydroxy-4-methyl-piperidine-1-carbonyl)-2,6-dimethyl-phenyl]-ethenesulfonyl}-1,3,8-triaza-spiro[4.5]dec-1-en-4-one] | 99
13 | Cc1cc(N(C)C(N)=O)cc(C)c1/C=C/S(=O)(=O)N1CCC2(CC1)N=C(CCCCCCCCCO)NC2=O [Compound 1309, 1-(4-{(E)-2-[2-(9-hydroxy-nonyl)-4-oxo-1,3,8-triaza-spiro[4.5]dec-1-ene-8-sulfonyl]-vinyl}-3,5-dimethyl-phenyl)-1-methyl-urea] | 109
14 | Cc1cc(N(C)C(N)=O)cc(C)c1CCS(=O)(=O)N1CCC2(CC1)N=C(c1ccc3c(c1)CCCC3)NC2=O [Compound 1039, 1-(3,5-Dimethyl-4-{2-[4-oxo-2-(5,6,7,8-tetrahydro-naphthalen-2-yl)-1,3,8-triaza-spiro[4.5]dec-1-ene-8-sulfonyl]-ethyl}-phenyl)-1-methyl-urea] | 103
15 | CCCCCCCCCC1=NC2(CCN(S(=O)(=O)/C=C/c3c(C)cc(N(CCO)C(C)=O)cc3C)CC2)C(=O)N1 [Compound 701, N-{3,5-dimethyl-4-[(E)-2-(2-nonyl-4-oxo-1,3,8-triaza-spiro[4.5]dec-1-ene-8-sulfonyl)-vinyl]-phenyl}-N-(2-hydroxy-ethyl)-acetamide] | 140
16 | CC(=O)NCc1ccc(CCS(=O)(=O)N2CCC3(CC2)N=C(C2CCC(CCC(F)(F)F)CC2)NC3=O)c(C)c1 (stereo not shown) [Compound 1394, N-[3-Methyl-4-(2-{4-oxo-2-[4-(3,3,3-trifluoro-propyl)-cyclohexyl]-1,3,8-triaza-spiro[4.5]dec-1-ene-8-sulfonyl}-ethyl)-benzyl]-acetamide] | 82
17 | CC[C@H]1CC[C@H](C2=NC3(CCN(S(=O)(=O)/C=C/c4ccc(N5CC(=O)NC5=O)cc4C)CC3)C(=O)N2)CC1 [Compound 624, 1-(4-{(E)-2-[2-(4-Ethyl-cyclohexyl)-4-oxo-1,3,8-triaza-spiro[4.5]dec-1-ene-8-sulfonyl]-vinyl}-3-methyl-phenyl)-imidazolidine-2,4-dione] | 36
18 | [2H]C([2H])([2H])N(C(N)=O)c1cc(C)c(/C=C/S(=O)(=O)N2CCC3(CC2)N=C(c2ccc(F)c(C(F)(F)F)c2)NC3=O)c(C)c1 [Compound 1312, 1-(4-{(E)-2-[2-(4-fluoro-3-trifluoromethyl-phenyl)-4-oxo-1,3,8-triaza-spiro[4.5]dec-1-ene-8-sulfonyl]-vinyl}-3,5-dimethyl-phenyl)-1-[1,1,1-^2H3]methyl-urea] | 105
19 | Cc1cc(NS(=O)(=O)N(C)C)ccc1/C=C/S(=O)(=O)N1CCC2(CC1)N=C(C1CCCCC1)NC2=O [Compound 568, N-{4-[(E)-2-(2-cyclohexyl-4-oxo-1,3,8-triaza-spiro[4.5]dec-1-ene-8-sulfonyl)-vinyl]-3-methyl-phenyl}-N′,N′-dimethyl-sulfamide] | 39
